{"source": "paper PMC12715762", "about": "“Discovery of VU6052254: A Novel, Potent M1 Positive Allosteric Modulator” (ACS Chemical Neuroscience, 2025)", "key": {"CYP 2D6": {"target": "CYP 2D6 (Homo sapiens, UniProt P10635)", "assay": "CYP450 inhibition", "format": "in vitro ADME"}, "CYP 2C19": {"target": "CYP 2C19 (Homo sapiens, UniProt P33261)", "assay": "CYP450 inhibition", "format": "in vitro ADME"}, "hERG": {"target": "T1, hERG (Homo sapiens, UniProt Q12809)", "T1 construct": "Charles River", "assay": "functional hERG manual patch clamp (MPC) assay", "format": "cell-based"}, "C57Bl/6 mice": {"test_system": "C57Bl/6 mice", "assay": "phenotypic seizure liability assay (Racine scale)", "format": "in vivo, mouse", "protocol": "min, with an isocratic hold for 0.5 min, before transitioning to 10% B over 0.05 min. The column was re-equilibrated (1 min) before the next sample injection. The total run time was 2.55 min, and the HPLC flow rate was 0.5 ml/min. The source temperature was set at 500 °C, and mass spectral analyses were performed using a Turbo-Ion spray source in positive ionization mode (5.0-kV spray voltage) and using multiple-reaction monitoring of transitions specific for the analytes. All data were analyzed using AB Sciex Analyst 1.5.1 software.\nBrain plasma concentration ratio (Kp) was calculated by dividing brain concentration by plasma concentration for each animal. Unbound brain to unbound plasma concentration ratio (Kp,uu) is calculated using the following formula: Kp,uu = (Brain ng/g x brain fu)/(plasma ng/ml x plasma fu).\nPharmacokinetic profiles in rats following oral single escalating doses Single escalating oral dosing in Sprague-Dawley rats was performed at Frontage Laboratories according to their non-GLP Standard Operating Procedure and IACUC protocols. In short, compounds were formulated in 10% Tween 80 in water and dosed at 10 mg/kg. At different times, arterial blood was collected from a femoral artery catheter, and compound concentration was determined in plasma by LC-MS/MS following their non-GLP protocol. PK parameters were determined using Phoenix WinNonlin software (version 6.3). […]\nBlood-brain barrier penetration was determined using MDR1-MDCK cell monolayers by Absorption Systems, following their protocol. […] Compounds concentration on either side of the monolayer was determined by LC-MS/MS and apparent permeability and efflux ratio were determined as described in Wang, Q. et al.1 […]\nTo evaluate induction of behavioral manifestation of seizure activity, C57Bl/6 mice received administration of vehicle or 100 mg/kg M1 PAM 5. […] Animals were monitored continuously and scored for behavioral manifestations of seizure activity at 5, 15, 30 min, and 1 h. Behavioral manifestations of seizures were scored using a modified Racine scoring system. […]"}, "Sprague-Dawley rats": {"test_system": "Sprague-Dawley rats", "assay": "novel object recognition (NOR)", "format": "in vivo, rat", "protocol": "monitored continuously and scored for behavioral manifestations of seizure activity at 5, 15, 30 min, and 1 h. Behavioral manifestations of seizures were scored using a modified Racine scoring system. Briefly, a score of 0 represents no behavior alterations; score 1, immobility, mouth and facial movements, or facial clonus; score 2, head nodding, tail extension; score 3, forelimb clonus, repetitive movements; score 4, rearing and tonic clonic seizure; and score 5, continuous rearing and falling, severe generalized tonic clonic seizure.\nNovel Object Recognition Task\nRats were habituated for 10 min for 2 consecutive days in an empty novel object recognition (NOR) arena consisting of dark-colored plexiglass box (40 × 64 × 33 cm3). On day 3 rats were administered vehicle, M1 PAM 3 (1-10 mg/kg, p.o.., 10 mL/kg, n = 13-18), or M 1 PAM 5 (0.3-3 mg/kg, p.o.., 10 mL/kg, n = 16-18) and returned to their home cage for 60 min (M 1 PAM 5) or 2 hr (M1 PAM 3. Rats were then placed in the NOR arena containing two identical objects for 10 min. Following the exposure period, rats were placed back into their home cages for 24 h. The rats were then returned to the arena in which one of the previously exposed (familiar) objects was replaced by a novel object and were video recorded for 5 min while they explored the two objects.\nTime spent exploring each object was scored by an observer blinded to the experimental conditions and the recognition index was calculated as [(time spent exploring novel object) – (time spent exploring familiar object)]/total time exploring objects."}, "4 strain": {"test_system": "4 strain", "assay": "AMES assay (4 strain, with and without S9)", "format": "cell-based"}, "2B6": {"test_system": "2B6", "assay": "CYP450 induction in human hepatocytes (three donors)", "format": "cell-based", "details": "10 μM, human hepatocytes from three donors"}, "Adenosine A2A": {"target": "Adenosine A2A (Homo sapiens, UniProt P29274)", "sequence (P29274 whole entry)": "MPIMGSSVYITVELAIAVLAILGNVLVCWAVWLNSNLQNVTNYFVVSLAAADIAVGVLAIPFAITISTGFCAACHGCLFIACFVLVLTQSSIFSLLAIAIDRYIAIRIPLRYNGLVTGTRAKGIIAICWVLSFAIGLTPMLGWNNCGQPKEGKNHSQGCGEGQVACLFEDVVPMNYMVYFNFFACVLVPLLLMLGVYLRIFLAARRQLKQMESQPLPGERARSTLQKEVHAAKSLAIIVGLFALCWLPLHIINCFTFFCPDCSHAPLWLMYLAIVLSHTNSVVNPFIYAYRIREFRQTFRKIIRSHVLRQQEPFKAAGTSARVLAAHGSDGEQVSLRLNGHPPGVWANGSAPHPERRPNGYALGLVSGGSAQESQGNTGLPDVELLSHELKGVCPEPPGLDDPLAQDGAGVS", "assay": "Eurofins radioligand binding"}, "Bradykinin B1": {"target": "Bradykinin B1 (Homo sapiens, UniProt P46663)", "assay": "Eurofins radioligand binding"}, "Bradykinin B2": {"target": "Bradykinin B2 (Homo sapiens, UniProt P30411)", "assay": "Eurofins radioligand binding"}, "[1]": {"test_system": "Calcium Channel L-Type, Dihydropyridine", "assay": "Eurofins radioligand binding", "details": "Rat"}, "Calcium Channel N-Type": {"target": "Calcium Channel N-Type (Rattus norvegicus, UniProt Q02294)", "sequence (Q02294 whole entry)": "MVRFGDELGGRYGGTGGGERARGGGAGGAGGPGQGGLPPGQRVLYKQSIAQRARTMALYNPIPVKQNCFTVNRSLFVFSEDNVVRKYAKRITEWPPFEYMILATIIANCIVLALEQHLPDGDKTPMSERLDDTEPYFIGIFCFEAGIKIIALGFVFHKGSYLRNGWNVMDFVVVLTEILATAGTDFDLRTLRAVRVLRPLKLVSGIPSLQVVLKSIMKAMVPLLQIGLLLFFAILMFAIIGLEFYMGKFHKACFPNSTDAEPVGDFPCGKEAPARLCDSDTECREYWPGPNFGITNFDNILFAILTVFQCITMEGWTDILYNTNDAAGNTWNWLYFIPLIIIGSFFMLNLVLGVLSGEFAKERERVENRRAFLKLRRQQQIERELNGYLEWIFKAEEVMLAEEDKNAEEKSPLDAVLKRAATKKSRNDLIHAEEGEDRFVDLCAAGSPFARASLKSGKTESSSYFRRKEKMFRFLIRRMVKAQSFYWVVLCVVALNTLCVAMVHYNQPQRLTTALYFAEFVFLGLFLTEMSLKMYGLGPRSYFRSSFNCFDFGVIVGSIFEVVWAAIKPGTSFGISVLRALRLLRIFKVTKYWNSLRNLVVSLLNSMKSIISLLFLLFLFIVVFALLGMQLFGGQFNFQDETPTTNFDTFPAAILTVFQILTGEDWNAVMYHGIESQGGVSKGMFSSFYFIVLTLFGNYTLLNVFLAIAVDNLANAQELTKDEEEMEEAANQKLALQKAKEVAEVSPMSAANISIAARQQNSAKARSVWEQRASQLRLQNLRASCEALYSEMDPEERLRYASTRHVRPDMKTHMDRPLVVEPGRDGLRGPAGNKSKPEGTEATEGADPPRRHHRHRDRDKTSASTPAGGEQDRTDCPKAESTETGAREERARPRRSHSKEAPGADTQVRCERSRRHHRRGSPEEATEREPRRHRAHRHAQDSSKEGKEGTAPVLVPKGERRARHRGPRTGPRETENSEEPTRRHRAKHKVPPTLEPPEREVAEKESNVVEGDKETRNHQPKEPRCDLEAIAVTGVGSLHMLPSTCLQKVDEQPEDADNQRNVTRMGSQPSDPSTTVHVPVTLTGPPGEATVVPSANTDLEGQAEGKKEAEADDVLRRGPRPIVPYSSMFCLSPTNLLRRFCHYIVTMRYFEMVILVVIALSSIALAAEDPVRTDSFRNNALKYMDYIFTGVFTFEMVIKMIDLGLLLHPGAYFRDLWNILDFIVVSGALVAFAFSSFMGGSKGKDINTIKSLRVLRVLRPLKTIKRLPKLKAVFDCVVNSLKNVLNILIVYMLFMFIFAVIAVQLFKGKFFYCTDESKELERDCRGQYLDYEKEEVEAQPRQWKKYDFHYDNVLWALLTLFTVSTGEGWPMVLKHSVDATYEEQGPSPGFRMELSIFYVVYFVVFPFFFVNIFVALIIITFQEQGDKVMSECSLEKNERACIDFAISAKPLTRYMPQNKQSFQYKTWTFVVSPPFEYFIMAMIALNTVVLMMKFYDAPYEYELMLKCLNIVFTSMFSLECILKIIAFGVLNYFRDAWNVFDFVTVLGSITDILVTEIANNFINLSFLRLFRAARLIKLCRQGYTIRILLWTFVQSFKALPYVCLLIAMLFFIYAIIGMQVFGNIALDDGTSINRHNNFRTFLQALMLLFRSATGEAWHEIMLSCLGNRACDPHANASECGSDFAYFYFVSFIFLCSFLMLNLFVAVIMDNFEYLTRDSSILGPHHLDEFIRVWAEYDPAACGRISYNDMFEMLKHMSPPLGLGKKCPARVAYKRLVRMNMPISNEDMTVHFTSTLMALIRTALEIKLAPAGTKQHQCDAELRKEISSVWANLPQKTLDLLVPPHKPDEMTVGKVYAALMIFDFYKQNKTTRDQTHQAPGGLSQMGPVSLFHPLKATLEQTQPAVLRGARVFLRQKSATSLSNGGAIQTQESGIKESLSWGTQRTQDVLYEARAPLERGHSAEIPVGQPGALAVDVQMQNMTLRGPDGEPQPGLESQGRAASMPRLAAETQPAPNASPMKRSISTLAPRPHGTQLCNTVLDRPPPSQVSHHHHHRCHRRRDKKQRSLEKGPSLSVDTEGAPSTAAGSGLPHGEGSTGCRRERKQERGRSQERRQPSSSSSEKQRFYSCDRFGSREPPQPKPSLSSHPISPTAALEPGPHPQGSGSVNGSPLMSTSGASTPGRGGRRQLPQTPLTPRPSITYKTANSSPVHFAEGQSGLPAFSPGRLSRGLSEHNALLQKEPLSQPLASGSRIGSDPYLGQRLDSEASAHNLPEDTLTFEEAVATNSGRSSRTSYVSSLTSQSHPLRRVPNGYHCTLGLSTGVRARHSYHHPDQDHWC", "assay": "Eurofins radioligand binding"}, "Dopamine D1": {"target": "Dopamine D1 (Homo sapiens, UniProt P21728)", "assay": "Eurofins radioligand binding"}, "Glutamate, Kainate": {"test_system": "Glutamate, Kainate", "assay": "Eurofins radioligand binding", "details": "Rat"}, "Glutamate, NMDA, Glycine": {"test_system": "Glutamate, NMDA, Glycine", "assay": "Eurofins radioligand binding", "details": "Rat"}, "Histamine H3": {"target": "Histamine H3 (Homo sapiens, UniProt Q9Y5N1)", "assay": "Eurofins radioligand binding"}, "Potassium Channel [KATP]": {"target": "Potassium Channel [KATP] (Cricetus cricetus, UniProt Q09427)", "sequence (Q09427 whole entry)": "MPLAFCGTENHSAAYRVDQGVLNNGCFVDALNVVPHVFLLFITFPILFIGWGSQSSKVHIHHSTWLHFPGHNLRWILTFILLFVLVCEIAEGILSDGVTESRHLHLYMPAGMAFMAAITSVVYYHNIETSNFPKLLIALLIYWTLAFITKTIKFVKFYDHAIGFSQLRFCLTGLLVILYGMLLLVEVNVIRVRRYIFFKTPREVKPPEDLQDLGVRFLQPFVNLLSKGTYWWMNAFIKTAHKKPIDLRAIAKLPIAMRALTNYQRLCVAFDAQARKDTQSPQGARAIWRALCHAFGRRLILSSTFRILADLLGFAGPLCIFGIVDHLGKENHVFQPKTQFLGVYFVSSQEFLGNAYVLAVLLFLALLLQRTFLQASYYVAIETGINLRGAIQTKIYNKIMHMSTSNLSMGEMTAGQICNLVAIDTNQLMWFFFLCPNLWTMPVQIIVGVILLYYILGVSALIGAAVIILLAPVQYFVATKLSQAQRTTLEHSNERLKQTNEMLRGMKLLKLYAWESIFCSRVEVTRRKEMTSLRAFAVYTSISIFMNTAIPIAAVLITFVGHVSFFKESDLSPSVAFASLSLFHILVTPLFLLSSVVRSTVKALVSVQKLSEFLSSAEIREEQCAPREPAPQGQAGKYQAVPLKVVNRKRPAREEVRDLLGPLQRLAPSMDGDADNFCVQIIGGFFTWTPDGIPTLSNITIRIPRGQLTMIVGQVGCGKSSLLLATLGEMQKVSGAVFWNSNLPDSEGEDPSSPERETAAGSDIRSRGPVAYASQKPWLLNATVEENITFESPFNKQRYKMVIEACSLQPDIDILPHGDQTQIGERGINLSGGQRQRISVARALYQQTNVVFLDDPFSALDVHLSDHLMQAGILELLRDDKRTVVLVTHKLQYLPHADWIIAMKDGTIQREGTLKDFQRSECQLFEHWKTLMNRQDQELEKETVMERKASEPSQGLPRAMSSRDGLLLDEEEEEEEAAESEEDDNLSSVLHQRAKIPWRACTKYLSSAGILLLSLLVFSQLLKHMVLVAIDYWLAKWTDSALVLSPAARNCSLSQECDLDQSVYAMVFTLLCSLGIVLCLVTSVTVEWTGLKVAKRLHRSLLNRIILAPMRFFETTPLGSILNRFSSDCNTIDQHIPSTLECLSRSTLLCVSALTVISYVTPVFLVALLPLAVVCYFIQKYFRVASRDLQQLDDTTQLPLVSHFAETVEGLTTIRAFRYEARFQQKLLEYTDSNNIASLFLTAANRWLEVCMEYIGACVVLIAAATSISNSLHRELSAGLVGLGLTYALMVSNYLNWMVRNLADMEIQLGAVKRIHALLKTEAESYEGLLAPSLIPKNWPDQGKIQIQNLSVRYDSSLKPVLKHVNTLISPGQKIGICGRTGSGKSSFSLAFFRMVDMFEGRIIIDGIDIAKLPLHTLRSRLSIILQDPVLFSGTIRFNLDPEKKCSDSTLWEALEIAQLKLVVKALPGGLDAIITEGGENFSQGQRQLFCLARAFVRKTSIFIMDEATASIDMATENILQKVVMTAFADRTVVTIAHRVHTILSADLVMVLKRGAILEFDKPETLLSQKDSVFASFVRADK", "assay": "Eurofins radioligand binding", "details": "Hamster"}, "hERG potassium channel": {"target": "hERG potassium channel (Homo sapiens, UniProt Q12809)", "assay": "Eurofins radioligand binding"}, "Purinergic P2X": {"test_system": "Purinergic P2X", "assay": "Eurofins radioligand binding", "details": "Rat"}, "[2]": {"target": "Transporter, Norepinephrine (NET) (Homo sapiens, UniProt P23975)", "sequence (P23975 whole entry)": "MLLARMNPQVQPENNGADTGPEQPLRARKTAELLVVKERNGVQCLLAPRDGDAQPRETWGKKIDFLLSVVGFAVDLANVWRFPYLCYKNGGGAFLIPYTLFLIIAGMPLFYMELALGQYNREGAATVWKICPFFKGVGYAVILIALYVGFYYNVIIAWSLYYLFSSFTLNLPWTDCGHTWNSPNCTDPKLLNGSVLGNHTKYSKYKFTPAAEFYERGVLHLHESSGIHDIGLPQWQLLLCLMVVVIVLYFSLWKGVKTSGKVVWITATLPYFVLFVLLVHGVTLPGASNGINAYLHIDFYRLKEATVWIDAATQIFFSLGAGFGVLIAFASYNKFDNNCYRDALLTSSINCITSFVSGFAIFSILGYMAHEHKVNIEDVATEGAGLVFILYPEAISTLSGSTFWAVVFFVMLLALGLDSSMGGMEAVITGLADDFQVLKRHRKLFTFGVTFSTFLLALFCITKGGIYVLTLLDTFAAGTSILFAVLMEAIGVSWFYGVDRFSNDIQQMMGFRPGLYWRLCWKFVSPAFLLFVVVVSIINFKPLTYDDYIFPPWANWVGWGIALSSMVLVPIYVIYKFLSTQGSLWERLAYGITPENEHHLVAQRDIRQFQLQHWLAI", "assay": "Eurofins radioligand binding"}}, "note": "Entries after “also recorded” stand apart in the source; their conditions may differ."}
{"compound": "Cn1cc2c(-c3cc(F)c(CN4Cc5ncccc5C4=O)c(F)c3)ccc(C(C)(C)O)c2n1", "note": "[compound 7]", "values": [{"measurement": "IC50", "setting": "CYP 2D6", "result": "> 30", "unit": "µM"}, {"measurement": "IC50", "setting": "CYP 2C19", "result": "> 30", "unit": "µM"}, {"measurement": "IC50", "setting": "hERG", "result": "> 30", "unit": "µM"}, {"measurement": "AEs in seizure liability assay", "setting": "C57Bl/6 mice; 56.6 mg/kg IP, mice, result in words", "result": "negligible AEs"}, {"measurement": "Racine scale scores", "setting": "C57Bl/6 mice; 100 mg/kg IP, mice", "result": "less than 2"}, {"measurement": "AEs in Racine score test", "setting": "C57Bl/6 mice; 56.6 and 100 mg/kg, i.p., 360 min, male C57Bl/6 mice, result in words", "result": "minimal AEs at 60 min postadministration with a lack of AEs observed at 6 h"}, {"measurement": "free brain concentration at NOR MED", "setting": "Sprague-Dawley rats; 1 mg/kg PO, rat", "result": 71, "unit": "nM"}, {"measurement": "effect on recognition index / recognition memory in NOR", "setting": "Sprague-Dawley rats; 0.3 to 3.0 mg/kg PO, result in words", "result": "dose-dependently increased the recognition index; also recorded: dose-dependently enhanced the recognition memory"}, {"measurement": "minimum effective dose (MED) in rat NOR", "setting": "Sprague-Dawley rats; PO, 10% Tween 80 in water, male Sprague-Dawley rats", "result": 1, "unit": "mg/kg"}, {"measurement": "margin in terms of dose, NOR MED relative to the seizure assay and the Irwin battery", "setting": "Sprague-Dawley rats; rat, in vivo", "result": "~50", "unit": "fold"}, {"measurement": "margin in terms of total brain exposure, NOR MED relative to the seizure assay and the Irwin battery", "setting": "Sprague-Dawley rats; rat, in vivo", "result": "11- to 16 fold"}, {"measurement": "AMES assay result", "setting": "4 strain", "result": "negative"}, {"measurement": "2B6 induction", "setting": "2B6", "result": 11.5, "unit": "%"}, {"measurement": "inhibition at 10 µM", "setting": "Adenosine A2A", "result": 3, "unit": "%"}, {"measurement": "inhibition at 10 µM", "setting": "Bradykinin B1", "result": 0, "unit": "%"}, {"measurement": "inhibition at 10 µM", "setting": "Bradykinin B2", "result": -18, "unit": "%"}, {"measurement": "% Inhibition at 10 µM", "setting": "[1]", "result": 59, "unit": "%"}, {"measurement": "inhibition at 10 µM", "setting": "Calcium Channel N-Type", "result": -11, "unit": "%"}, {"measurement": "inhibition at 10 µM", "setting": "Dopamine D1", "result": 6, "unit": "%"}, {"measurement": "% Inhibition at 10 µM", "setting": "Glutamate, Kainate", "result": -2, "unit": "%"}, {"measurement": "% Inhibition at 10 µM", "setting": "Glutamate, NMDA, Glycine", "result": -9, "unit": "%"}, {"measurement": "inhibition at 10 µM", "setting": "Histamine H3", "result": -11, "unit": "%"}, {"measurement": "inhibition at 10 µM", "setting": "Potassium Channel [KATP]", "result": 11, "unit": "%"}, {"measurement": "inhibition at 10 µM", "setting": "hERG potassium channel", "result": 2, "unit": "%"}, {"measurement": "% Inhibition at 10 µM", "setting": "Purinergic P2X", "result": 4, "unit": "%"}, {"measurement": "inhibition at 10 µM", "setting": "[2]", "result": 1, "unit": "%"}]}
